Reference: patent US10538567B2, “Compounds as peptidic trigonal GLP1/glucagon/GIP receptor agonists” (priority 2016, dated 2020)
Numbered stars: 1 amine (or outer) side, 2 acyl side, 3 side chain; on linkers, the order of the positions; unused ones are H or OH. Square brackets hold non-standard residues; d marks the D form. Side chains are listed from the residue outwards. Peptide text beside a SMILES is read from it. * marks the point of attachment. γGlu = O=C(O)[C@H](CCC(=O)[*:2])N[*:1]; Palmitoyl = CCCCCCCCCCCCCCCC(=O)*; Aib = CC(C)(N)C(=O)O

Tests used:
[1] = Dynamic light scattering, hydrodynamic radius as surrogate for DLS interaction parameter kD; assay type: physicochemical; settings: for Delta Rh [nm] = Rh5 − Rh1: DLS buffer system A pH 4.5; for Rh1 [nm] c = 1 mg/ml / Rh5 [nm] c = 5 mg/ml: hydrodynamic radius, DLS buffer system A pH 4.5, method C, 25° C.
Source text: A monochromatic and coherent light beam (laser) is used to illuminate the liquid sample. Dynamic Light Scattering (DLS) measures light scattered from particles (1 nm≤radius≤1 μm) that undergo Brownian motion. This motion is induced by collisions between the particles and solvent molecules that themselves are moving due to their thermal energy. The diffusional motion of the particles results in temporal fluctuations of the scattered light [Pecora, R. Dynamic Light Scattering: Applications of Photon Correlation Spectroscopy, Plenum Press, 1985].
The scattered light intensity fluctuations are recorded and transformed into an autocorrelation function. By fitting the autocorrelation curve to an exponential function, the diffusion coefficient D of the particles in solution can be derived. The diffusion coefficient is then used to calculate the hydrodynamic radius Rh (or apparent Stokes radius) through the Stokes-Einstein equation assuming spherical particles. This calculation is defined in ISO 13321 and ISO 22412 [International Standard ISO13321 Methods for Determination of Particle Size Distribution Part 8: Photon Correlation Spectroscopy, International Organisation for Standardisation (ISO) 1996; International Standard ISO22412 Particle Size Analysis—Dynamic Light Scattering, International Organisation for Standardisation (ISO) 2008].
For every peptide solution, the hydrodynamic radius Rh and the diffusion constant D (related via the Stokes-Einstein equation) were determined as an average over triplicates. Both parameters were determined at different peptide concentrations (e.g., Rh1 and D1: 1 mg/ml and Rh5 and D5: 5 mg/ml) in the same buffer system. The difference of these parameters between low and high peptide concentration is a surrogate for the DLS interaction parameter kD. Rh5<Rh1 or D5>D1 correspond to kD>0 and therefore to repulsive inter-particle interactions that result in improved physical (or colloidal) stability.
DLS buffer system A) 25 mM acetate buffer pH 4.5, 3 mg/mL L-Methionine, 2.7 mg/mL m-cresol, 18 mg/mL Glycerol 85%
DLS Method C: DLS measurements were performed on a DynaPro Plate Reader II (Wyatt Technology, Santa Barbara, Calif., US) and using one of the following black, low volume, and non-treated plates: polystyrene 384 assay plate with clear bottom (Corning, N.Y., US), polystyrene 96 assay plate with clear bottom (Corning, N.Y., US), cyclo olefin polymer (COP) 384 assay plate with clear bottom (Aurora, Mont., US), or polystyrene 384 assay plate with clear bottom (Greiner Bio-One, Germany). The data were processed with the Dynamics software provided by Wyatt Technology. Parameters of the particle size distribution were determined with non-negatively constrained least squares (NNLS) methods using DynaLS algorithms. Measurements were taken at 25° C. with an 830 nm laser light source at an angle of 158°.
The hydrodynamic radius Rh of peptide samples was determined at different peptide concentrations (1 mg/ml and 5 mg/ml) in DLS buffer system A using DLS method C as described in Methods as surrogate for the DLS interaction parameter kD.

[2] = target: T1, human GIP receptor (Homo sapiens, UniProt P48546); assay: cAMP response (HTRF) of HEK-293 cells stably expressing human GIP receptor; assay type: cell-based; settings: Table 8; read-out: EC50 hGIP R
T1 construct: expressed in transfected cells; host or cells: HEK-293
T1 sequence (P48546 22-466): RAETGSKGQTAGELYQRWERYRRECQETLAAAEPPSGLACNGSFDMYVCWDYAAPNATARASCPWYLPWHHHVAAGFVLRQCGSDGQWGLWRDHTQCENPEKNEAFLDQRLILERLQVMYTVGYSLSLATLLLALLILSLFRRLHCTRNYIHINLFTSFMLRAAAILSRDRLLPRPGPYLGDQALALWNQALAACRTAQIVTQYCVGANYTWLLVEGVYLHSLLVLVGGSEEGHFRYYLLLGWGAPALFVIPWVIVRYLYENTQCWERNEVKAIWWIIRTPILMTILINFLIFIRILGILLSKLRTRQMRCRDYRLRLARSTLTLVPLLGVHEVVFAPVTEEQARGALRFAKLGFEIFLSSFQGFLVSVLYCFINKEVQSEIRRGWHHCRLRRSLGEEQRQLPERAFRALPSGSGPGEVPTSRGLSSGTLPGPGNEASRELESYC
Procedure: Agonism of compounds for the receptors was determined by functional assays measuring cAMP response of HEK-293 cell lines stably expressing human GLP-1, GIP or glucagon receptor.
cAMP content of cells was determined using a kit from Cisbio Corp. (cat. no. 62AM4PEJ) based on HTRF (Homogenous Time Resolved Fluorescence). For preparation, cells were split into T175 culture flasks and grown overnight to near confluency in medium (DMEM/10% FBS). Medium was then removed and cells washed with PBS lacking calcium and magnesium, followed by proteinase treatment with accutase (Sigma-Aldrich cat. no. A6964). Detached cells were washed and resuspended in assay buffer (1×HBSS; 20 mM HEPES, 0.1% BSA, 2 mM IBMX) and cellular density determined. They were then diluted to 400000 cells/ml and 25 μl-aliquots dispensed into the wells of 96-well plates. For measurement, 25 μl of test compound in assay buffer was added to the wells, followed by incubation for 30 minutes at room temperature. After addition of HTRF reagents diluted in lysis buffer (kit components), the plates were incubated for 1 hr, followed by measurement of the fluorescence ratio at 665/616 nm. In vitro potency of agonists was quantified by determining the concentrations that caused 50% activation of maximal response (EC50).
Potencies of peptidic compounds at the GLP-1, glucagon and GIP receptors were determined by exposing cells expressing human glucagon receptor (hGlucagon R), human GIP receptor (hGIP-R) or human GLP-1 receptor (hGLP-1 R) to the listed compounds at increasing concentrations and measuring the formed cAMP as described in Methods.

CCCCCCCCCCCCCCCC(=O)N[C@@H](CCC(=O)N[C@@H](CCC(=O)NCCCC[C@H](NC(=O)[C@H](CC(C)C)NC(=O)[C@H](CCCCN)NC(=O)[C@H](CO)NC(=O)[C@H](CC(C)C)NC(=O)[C@H](CC(=O)O)NC(=O)[C@H](CO)NC(=O)[C@@H](NC(=O)[C@H](Cc1ccccc1)NC(=O)[C@@H](NC(=O)CNC(=O)[C@H](Cc1c[nH]cn1)NC(=O)C(C)(C)NC(=O)[C@@H](N)Cc1c[nH]cn1)[C@@H](C)O)[C@@H](C)O)C(=O)N[C@@H](CCC(=O)O)C(=O)N[C@@H](CCC(=O)O)C(=O)N[C@@H](CCC(N)=O)C(=O)N[C@@H](CCCNC(=N)N)C(=O)N[C@@H](CCC(N)=O)C(=O)N[C@@H](CCCCN)C(=O)N[C@@H](CCC(=O)O)C(=O)N[C@@H](Cc1ccccc1)C(=O)N[C@H](C(=O)N[C@@H](CCC(=O)O)C(=O)N[C@@H](Cc1c[nH]c2ccccc12)C(=O)N[C@@H](CC(C)C)C(=O)N[C@@H](CCCCN)C(=O)N[C@@H](C)C(=O)NCC(=O)NCC(=O)N[C@@H](Cc1c[nH]cn1)C(=O)N1CCC[C@H]1C(=O)N[C@@H](CO)C(=O)NC(C)(C)C(=O)N[C@@H](CCCCN)C(=O)N1CCC[C@H]1C(=O)N1CCC[C@H]1C(=O)N1CCC[C@H]1C(=O)N[C@@H](CCCCN)C(N)=O)[C@@H](C)CC)C(=O)O)C(=O)O [SEQ ID NO: 6, H-Aib-H-G-T-F-T-S-D-L-S-K-L-K[gGlu-gGlu-Palm]-E-E-Q-R-Q-K-E-F-I-E-W-L-K-A-G-G-H-P-S-Aib-K-P-P-P-K-NH2]
Delta Rh [nm] = Rh5 − Rh1 [1]: −0.9 nm
Rh1 [nm] c = 1 mg/ml [1]: 2.5 nm
Rh5 [nm] c = 5 mg/ml [1]: 1.7 nm

CCCCCCCCCCCCCCCC(=O)N[C@@H](CCC(=O)N[C@@H](CCC(=O)NCCCC[C@H](NC(=O)[C@H](CC(C)C)NC(=O)[C@H](CCCCN)NC(=O)[C@H](CO)NC(=O)[C@H](CC(C)C)NC(=O)[C@H](CC(=O)O)NC(=O)[C@H](CO)NC(=O)[C@@H](NC(=O)[C@H](Cc1ccccc1)NC(=O)[C@@H](NC(=O)CNC(=O)[C@H](Cc1c[nH]cn1)NC(=O)C(C)(C)NC(=O)[C@@H](N)Cc1c[nH]cn1)[C@@H](C)O)[C@@H](C)O)C(=O)N[C@@H](CCC(=O)O)C(=O)N[C@@H](CCC(=O)O)C(=O)N[C@@H](CCC(N)=O)C(=O)N[C@@H](CCCNC(=N)N)C(=O)N[C@@H](CCC(N)=O)C(=O)N[C@@H](CCCCN)C(=O)N[C@@H](CCC(=O)O)C(=O)N[C@@H](Cc1ccccc1)C(=O)N[C@H](C(=O)N[C@@H](CCC(=O)O)C(=O)N[C@@H](Cc1c[nH]c2ccccc12)C(=O)N[C@@H](CC(C)C)C(=O)N[C@@H](CCCCN)C(=O)N[C@@H](C)C(=O)N[C@H](C)C(=O)NCC(=O)N[C@@H](Cc1c[nH]cn1)C(=O)N1CCC[C@H]1C(=O)N[C@@H](CO)C(=O)NC(C)(C)C(=O)N[C@@H](CCCCN)C(=O)N1CCC[C@H]1C(=O)N1CCC[C@H]1C(=O)N1CCC[C@H]1C(=O)N[C@@H](CCCCN)C(N)=O)[C@@H](C)CC)C(=O)O)C(=O)O [SEQ ID NO: 7, H-Aib-H-G-T-F-T-S-D-L-S-K-L-K[gGlu-gGlu-Palm]-E-E-Q-R-Q-K-E-F-I-E-W-L-K-A-dAla-G-H-P-S-Aib-K-P-P-P-K-NH2] (H-H[Aib]HGTFTSDLSKLK([γGlu-γGlu-Palmitoyl])EEQRQKEFIEWLKA[dA]GHPS[Aib]KPPPK-NH2)
EC50 [2]: 2.6 pM

CCCCCCCCCCCCCCCC(=O)N[C@@H](CCC(=O)N[C@@H](CCC(=O)NCCCC[C@H](NC(=O)[C@H](CC(C)C)NC(=O)[C@H](CCCCN)NC(=O)[C@H](CO)NC(=O)[C@H](CC(C)C)NC(=O)[C@H](CC(=O)O)NC(=O)[C@H](CO)NC(=O)[C@@H](NC(=O)[C@H](Cc1ccccc1)NC(=O)[C@@H](NC(=O)CNC(=O)[C@H](Cc1c[nH]cn1)NC(=O)C(C)(C)NC(=O)[C@@H](N)Cc1c[nH]cn1)[C@@H](C)O)[C@@H](C)O)C(=O)N[C@@H](CCC(=O)O)C(=O)N[C@@H](CCC(=O)O)C(=O)N[C@@H](CCC(N)=O)C(=O)N[C@@H](CCCNC(=N)N)C(=O)N[C@@H](CCC(N)=O)C(=O)N[C@@H](CCCCN)C(=O)N[C@@H](CCC(=O)O)C(=O)N[C@@H](Cc1ccccc1)C(=O)N[C@H](C(=O)N[C@@H](CCC(=O)O)C(=O)N[C@@H](Cc1c[nH]c2ccccc12)C(=O)N[C@@H](CC(C)C)C(=O)N[C@@H](CCCCN)C(=O)N[C@@H](C)C(=O)N[C@H](C)C(=O)NCC(=O)N1CCC[C@H]1C(=O)N1CCC[C@H]1C(=O)N[C@@H](CO)C(=O)NC(C)(C)C(=O)N[C@@H](CCCCN)C(=O)N1CCC[C@H]1C(=O)N1CCC[C@H]1C(=O)N1CCC[C@H]1C(=O)N[C@@H](CCCCN)C(N)=O)[C@@H](C)CC)C(=O)O)C(=O)O [SEQ ID NO: 9, H-Aib-H-G-T-F-T-S-D-L-S-K-L-K[gGlu-gGlu-Palm]-E-E-Q-R-Q-K-E-F-I-E-W-L-K-A-dAla-G-P-P-S-Aib-K-P-P-P-K-NH2] (H-H[Aib]HGTFTSDLSKLK([γGlu-γGlu-Palmitoyl])EEQRQKEFIEWLKA[dA]GPPS[Aib]KPPPK-NH2)
EC50 [2]: 2.6 pM
Delta Rh [nm] = Rh5 − Rh1 [1]: −0.2 nm
Rh1 [nm] c = 1 mg/ml [1]: 2.8 nm
Rh5 [nm] c = 5 mg/ml [1]: 2.6 nm

CCCCCCCCCCCCCCCC(=O)N[C@@H](CCC(=O)N[C@@H](CCC(=O)NCCCC[C@H](NC(=O)[C@H](CC(C)C)NC(=O)[C@H](CCCCN)NC(=O)[C@H](CO)NC(=O)[C@H](CC(C)C)NC(=O)[C@H](CC(=O)O)NC(=O)[C@H](CO)NC(=O)[C@@H](NC(=O)[C@H](Cc1ccccc1)NC(=O)[C@@H](NC(=O)CNC(=O)[C@H](Cc1c[nH]cn1)NC(=O)C(C)(C)NC(=O)[C@@H](N)Cc1c[nH]cn1)[C@@H](C)O)[C@@H](C)O)C(=O)N[C@@H](CCC(=O)O)C(=O)N[C@@H](CCC(=O)O)C(=O)N[C@@H](CCC(N)=O)C(=O)N[C@@H](CCCNC(=N)N)C(=O)N[C@@H](CCC(N)=O)C(=O)NC(C)(C)C(=O)N[C@@H](CCC(=O)O)C(=O)N[C@@H](Cc1ccccc1)C(=O)N[C@H](C(=O)N[C@@H](CCC(=O)O)C(=O)N[C@@H](Cc1c[nH]c2ccccc12)C(=O)N[C@@H](CC(C)C)C(=O)N[C@@H](CCCCN)C(=O)N[C@@H](C)C(=O)NCC(=O)NCC(=O)N1CCC[C@H]1C(=O)N1CCC[C@H]1C(=O)N[C@@H](CO)C(=O)NC(C)(C)C(=O)N[C@@H](CCCCN)C(=O)N1CCC[C@H]1C(=O)N1CCC[C@H]1C(=O)N1CCC[C@H]1C(=O)N[C@@H](CCCCN)C(N)=O)[C@@H](C)CC)C(=O)O)C(=O)O [SEQ ID NO: 10, H-Aib-H-G-T-F-T-S-D-L-S-K-L-K[gGlu-gGlu-Palm]-E-E-Q-R-Q-Aib-E-F-I-E-W-L-K-A-G-G-P-P-S-Aib-K-P-P-P-K-NH2]
EC50 [2]: 1.1 pM
